In US12171884B2, “Mesoporous silica nanoparticles with lipid bilayer coating for cargo delivery” (priority 2016, dated 2024):
Entries after “also recorded” stand apart in the source; their conditions may differ. Where a name gives a salt, the structure may show the parent alone.

Columns and labels:
[1] = Liver and intestinal toxicity (H&E, cleaved caspase-3 IHC); conditions: animals of efficacy study, 40 mg/kg every 4 days
[2] = tested on: KPC-derived orthotopic tumors; assay: Efficacy assessment in KPC-derived orthotopic model; conditions: 40 mg/kg IV every 4 days
PANC-1 cells = assay: MTS cytotoxicity assay; format: cell-based; conditions: PANC-1, incremental irinotecan concentrations, 24-72 hours
[3] = human, in vivo; cited from earlier work
[4] = Maximum tolerated dose (NCI protocol); conditions: male, BALB/c, mouse, in vivo; Example 1; healthy mice, IV, validated in six mice over 15 days
Experimental: . Two healthy male BALB/c mice were IV injected with a 50 mg/kg (C1 dose) equivalent of free or encapsulated irinotecan. This was followed by a dose escalation factor of 1.8 to obtain the Cn dose, which results in animal death within 24 h after the last administration. The second round of dose-seeking began with the Cn-1 dose and utilized a 1.15 escalation factor (n=2) to find the MTD, which is defined as the absence of mortality or morbidity. The MTD was validated by injecting six mice, which were followed for 15 days to determine the absence of morbidity, mortality, or >15% weight loss.
. Two healthy male BALB/c mice were IV injected with 50 mg/kg (C1 dose) free or encapsulated drug. We then used a dose escalation factor of 1.8 to determine the Cn dose where both animals (n=2) died within 24 hours. After treatment with free or encapsulated irinotecan. The second round of dose-seeking began with Cn-1 dose, and utilized a 1.15 escalation factor (n=2) to find the MTD, where there was no mortality or serious morbidity. The MTD was further validated by injecting […], and following them for 15 days to ascertain that there was no morbidity, mortality or […]. […].

BxPC-3 cells = assay: MTS cytotoxicity assay; format: cell-based; conditions: BxPC3, incremental irinotecan concentrations, 24-72 hours
[5] = Acute histological analysis after single IV dose (Example 2); conditions: 60 mg/kg single IV, 24 hours; for kidney histology: hydrochloride trihydrate
[6] = Bone marrow toxicity and differential white cell count; format: in vivo, mice; conditions: 40 mg/kg IV x3, 2 days apart; listed as free drug, hydrochloride trihydrate
Experimental: Bone marrow toxicity was studied in a separate experiment, in which animals received three injections of a 40 mg/kg irinotecan dose equivalent, as described above. After sacrifice, sternal bone marrow was collected to evaluate myelotoxicity by H&E staining (FIG. 4D) (Iusuf et al. (2014) Mol. Cancer Ther. 13: 492-503).

[7] = tested on: patient-derived PDAC xenograft XWR #187; conditions: mouse, in vivo, 50 mg/kg
[8] = tested on: KPC-derived orthotopic tumor; conditions: mouse, in vivo
Excerpt: This stringent PDAC tumor model mimics human PDAC for oncogene expression, growth characteristics, metastasis, histological features and development of a dysplastic stroma. […] Imaging intensity was quantified by IVIS Lumina Living Image software.

PDAC = PDAC patients; cited from earlier work

Molecule: CCc1c2c(nc3ccc(OC(=O)N4CCC(N5CCCCC5)CC4)cc13)-c1cc3c(c(=O)n1C2)COC(=O)[C@]3(O)CC [free irinotecan, Irinotecan hydrochloride trihydrate]
- liver histology (H&E) [1]: severe and extensive hepatocyte necrosis
- effect on metastasis (ex vivo bioluminescence) [2]: failed to affect metastasis
- cell killing (MTS) (PANC-1 cells): more effective in killing over 24 hours
- G.I.T. adverse effects (vomiting, diarrhea, nausea, anorexia) [3]: ~50 % of patients
- incidence of neutropenia [3]: ~60%
- MTD at 15 days [4]: 60 mg/kg
- cell killing (MTS) (BxPC-3 cells): more effective in killing over 24 hours
- bone marrow toxicity (H&E histology) [5]: Severe bone marrow damage and apoptosis
- kidney histology ([5]; listed as Free irinotecan): nephrotoxicity
- kidney histology ([5]; listed as free IRIN): swelling and edema of Bowman's space
- peripheral blood neutrophil count [6]: significant decrease of the absolute neutrophil count; also recorded: peripheral blood neutropenia

Molecule: N=C(N)NCCC[C@@H]1NC(=O)[C@@H](N)CSSC[C@@H](C(=O)O)NC(=O)[C@H](CC(=O)O)NC(=O)[C@@H]2CCCN2C(=O)CNC(=O)[C@H](CCCCN)NC(=O)[C@H](CC(=O)O)NC(=O)CNC1=O [iRGD]
- increase of NIR intensity at the tumor site [7]: 50%
- enhancement of silicasome uptake at orthotopic tumor site by co-administration [8]: 3-4 fold
- intratumoral particle abundance and traveling distance from blood vessels [8]: most effective strategy to enhance silicasome uptake

Molecule: Nc1ccn([C@@H]2O[C@H](CO)[C@@H](O)C2(F)F)c(=O)n1 [GEM, gemcitabine]
- response rate (PDAC): 9.4%
- survival (PDAC): 6.8 months

Molecule: FOLFIRINOX
- response rate (PDAC): 31.6%
- survival (PDAC): ~11 months
